Laboratory results published in patent US20250352555A1, “METHOD OF INCREASING IMMUNE CELL ACTIVATION AND/OR TREATING CANCER USING DIBENZOXAZEPINONES” (VASCULAR THERAPEUTICS PTY LTD, priority 2022, published 2025).

Experiments:
[1] = tested on: B16F10 melanoma; experiment: Melanoma growth in C57BL/6J mice bearing s.c. B16F10 tumors; format: in vivo, mouse
Description: Melanoma growth studies in mice. Six-to-eight week old C57BL/6J mice (sourced from Australian Resource Centre, Perth) were inoculated subcutaneously (s.c.) with B16F10 cells (1×10^5 cells/mouse in 100 μl DMEM containing 10% FBS with 50% Matrigel). InVivoPlus anti-mouse PD-1 (CD279) (BioXCell, BP0033-2) or InVivoPlus polyclonal Armenian hamster IgG (Bio X Cell, BP0091) was administered intraperitoneally (i.p.) (100 μg) twice a week. Treatment commenced on Day 7.
Alternatively, BT2 was suspended at 10 mg/ml in vehicle (saline containing 0.5% (v/v) Tween 80 and 0.01% (v/v) DMSO) and sonicated prior to administration. Vehicle or BT2 was administered i.p. (20 ml/kg and 200 mg/kg, respectively) once a day on a 5 days-on/2 days-off schedule. Treatment commenced when tumors were palpable on Day 5.
Tumors were measured by length and width in mm twice per week for MDA-MB-435 in SCID mice and by length, width and height in mm once per day for B16F10 in C57BL/6J mice. Tumor volumes were calculated using formula V=(L×W×H×π)/6 (B16F10) or V=L×W×W/2 (MDA-MB-435). If a second tumor was detected in an animal, both tumor volumes were measured and their volumes combined. Animal protocols were approved by the Explora Biolabs' Institutional Animal Care and Use Committee (IACUC) and the UNSW Animal Care and Ethics Committee.
The preceding xenograft studies showing anti-tumor effects in immunocompromised mice when BT2 is delivered intratumorally (i.t.) but not systemically (i.p.) led the inventors to hypothesize that BT2 could rely upon an active immune system in order to effect tumor growth inhibition. Therefore, the effect of BT2 was tested in an immunocompetent mouse model of melanoma growth using B16F10 melanoma. […]
To assess the effect of BT2 in the same model, C57BL/6J mice bearing s.c. B16F10 tumors were administered with BT2 or vehicle (200 mg/kg or 20 ml/kg, respectively, i.p.) once a day on a 5 days-on/2 days-off schedule. […] Tumor size on Day 17 measured using callipers (FIG. 10A) correlated with isolated weighed tumors (FIG. 10B).

[2] = tested on: p-ERK; experiment: Western blotting time course for p-ERK, Jurkat T cells; format: cell-based, human; conditions: Western blot time course
Description: (§1) Western blotting. Cells were treated with compounds and times indicated and total cell lysates were prepared in RIPA buffer. Lysates (10 μg) were resolved by SDS-PAGE and transferred to Immobilon-P polyvinylidene difluoride (PVDF) membranes (Millipore, USA).
(§2) Membranes were blocked with 5% skim milk and incubated with rabbit monoclonal anti-c-Jun (Abcam, cat. no. ab32137; mouse, rat and human reactive) antibody, rabbit monoclonal anti-PD-1 (Abcam, cat. no. ab214421) antibody, mouse monoclonal β-actin antibody (Sigma-Aldrich, cat. no. A5316), anti-phospho-SAPK/JNK (Thr^183/Tyr^185) (98F2) (CST, cat. no. 4671) antibody, anti-phospho-p44/42 MAPK (ERK1/2) (Thr^202/Tyr^204) (D13.14.4E) (CST, cat. no. 4370) antibody, anti-phospho-p38 MAPK (Thr^180/Tyr^182) (D3F9) (CST, cat. no. 4511) antibody, anti-SAPK/JNK antibody (CST, cat. no. 9252), anti-p44/42 MAPK (ERK1/2) (137F5) antibody (CST, cat. no. 4695), anti-p38 MAPK antibody (CST, cat. no. 9212), anti-DUSP8 antibody (Abcam, cat. no. ab198175) or anti-c-MAF (BLR045F) antibody (Abcam, cat. no. ab243901). […] Chemiluminescence was detected using the Western Lightning Chemiluminescence system (Thermo Scientific, USA) and ImageQuant™ LAS 4000 biomolecular imager (GE Healthcare Life Sciences, USA). Band intensity in images generated with the LAS 4000 was quantified using NIH Image J. […]

[3] = tested on: JUN; experiment: Western blotting for JUN, A375 cells; format: cell-based, human; conditions: A375 cells (BRAF^V600E), 24 h, dose-dependent
Description: as §1, §2

CCOC(=O)Nc1ccc2c(c1)C(=O)N(CC)c1ccccc1O2 [BT2, (10-ethyl-11-oxo-10,11-dihydro-dibenzo[b,f][1,4]oxazepin-2-yl)-carbamic acid ethyl ester]
B16F10 tumor growth (volume) ([1]; C57BL/6J mice, 200 mg/kg i.p. once a day, 5 days-on/2 days-off, from Day 5): significant B16F10 growth inhibition from Day 9
body weight ([1]; C57BL/6J mice, B16F10, 200 mg/kg i.p. once a day, 5 days-on/2 days-off): no adverse effect on body weight
mice with tumor size exceeding 500 mm^3 (Kaplan-Meier analysis) ([1]; Day 17, 200 mg/kg i.p., vehicle 75%): none
levels of ERK phosphorylation [2]: no effect
JUN expression (Western blot) [3]: increased
